Where a name gives a salt, the structure may show the parent alone. Each block holds one molecule with its values, some of them ahead of it.
Columns and labels:
MCP-1 production = assay: LPS induced MCP-1 production from human whole blood; assay type: cell-based; conditions: LPS 200 ng/mL, 18-24 hours
Protocol: Activation of monocytic cells by agonists of toll-like receptors such as bacterial lipopolysaccharide (LPS) results in production of key inflammatory mediators including MCP-1. Such pathways are widely considered to be central to the pathophysiology of a range of auto-immune and inflammatory disorders. Blood is collected in a tube containing Sodium heparin (Leo Pharmaceuticals) (10 units of heparin/mL of blood). 96-well compound plates containing 1 μL test sample in 100% DMSO were prepared (two replicates on account of donor variability). 130 μL of whole blood was dispensed into each well of the 96-well compound plates and incubated for 30 min at 37° C., 5% CO2. 10 μL of lipopolysaccharide (from Salmonella typhosa; L6386) made up in PBS (200 ng/mL final assay concentration) was added to each well of the compound plates. The plates were then placed in the humidified primary cell incubator for 18-24 hours at 37° C., 5% CO2. 140 μL of PBS was added to all wells of the compound plates containing blood. The plates were then sealed and centrifuged for 10 mins at 2500 rpm. […] 150 μL of 2×MSD Read Buffer T (stock 4×MSD Read Buffer T was diluted 50:50 with de-ionised water) was then added to each well and the plates read on the MSD Sector Imager 6000. Concentration response curves for each compound were generated from the data and an pIC50 value was calculated.

recombinant human CES1 = target: T1, recombinant human CES1 (Homo sapiens, UniProt P23141); assay: Hydrolysis by hCES-1 (HPLC assay); assay type: in vitro ADME; conditions: 50 μM test compound, 50 nM CES1, 20° C., pH 7.5, n=2
T1 construct: Recombinant human CES1 (Gly18-Glu563, bearing a polyhistidine tag at the C-terminus); purchased Novoprotein, Summit, N.J., USA C450; host or cells: human cells
T1 sequence (P23141 18-563): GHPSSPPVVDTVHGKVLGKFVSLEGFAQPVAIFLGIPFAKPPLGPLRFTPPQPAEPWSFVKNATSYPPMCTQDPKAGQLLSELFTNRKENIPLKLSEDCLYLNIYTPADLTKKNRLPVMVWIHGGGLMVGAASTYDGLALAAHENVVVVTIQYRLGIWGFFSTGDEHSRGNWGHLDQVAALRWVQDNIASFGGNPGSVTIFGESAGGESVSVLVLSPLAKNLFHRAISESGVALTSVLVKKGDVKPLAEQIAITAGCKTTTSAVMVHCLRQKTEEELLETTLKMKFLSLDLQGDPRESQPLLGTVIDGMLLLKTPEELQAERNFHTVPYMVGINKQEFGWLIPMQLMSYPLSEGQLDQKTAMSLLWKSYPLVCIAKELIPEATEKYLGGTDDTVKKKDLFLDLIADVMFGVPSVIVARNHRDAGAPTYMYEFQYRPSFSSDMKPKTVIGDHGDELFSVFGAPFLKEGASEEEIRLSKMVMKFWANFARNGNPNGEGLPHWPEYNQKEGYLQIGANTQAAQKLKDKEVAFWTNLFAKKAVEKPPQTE
Protocol: Hydrolysis of ESM-containing BET inhibitors by carboxylesterase 1 (CES1) is one aspect of delivering a targeted molecule. Rates of hydrolysis of certain compounds of the invention by recombinant human CES1 were determined using an HPLC assay. Recombinant human CES1 (Gly18-Glu563, bearing a polyhistidine tag at the C-terminus) expressed in human cells and purified to homogeneity was obtained from Novoprotein, Summit, N.J., USA (catalogue number C450). Reactions were run in 384 well plates at 20° C. in a buffer of 50 mM sodium phosphate pH 7.5/100 mM NaCl. Assays used a fixed concentration of test compound (50 μM) and CES1 (50 nM) and a time course of the reaction was obtained by stopping samples at increasing times by addition of formic acid to lower the pH. Stopped samples were subsequently analysed by HPLC to resolve product acid from unhydrolysed ester, using a 50×2 mm C18 […] reversed-phase column (Phenomenex Gemini) at a flow rate of 1 ml/min using a gradient of acetonitrile in water, containing 0.1% formic acid. Chromatogaphy was monitored using absorbance at 300 nm wavelength. The % of product formed was determined using integrated peak areas and used to determine the initial rate of the reaction. […]

[1] = tested on: Bromodomains BRD2, BRD3, BRD4 and BRDT; assay: Fluoroligand binding to mutated vs non-mutated bromodomain (TR-FRET); parameters: species or system Human; conditions: single residue mutations in the acetyl lysine binding pocket
Protocol: The binding of compounds of the invention to Bromodomains BRD2, BRD3, BRD4 and BRDT was assessed using mutated proteins to detect differential binding to either Binding Domain 1 (BD1) or Binding Domain 2 (BD2) on the bromodomain. These single residue mutations in the acetyl lysine binding pocket greatly lower the affinity of the fluoroligand (Reference Compound X) for the mutated domain (>1000 fold selective for the non-mutated domain). Therefore in the final assay conditions, binding of the fluoroligand to the mutated domain cannot be detected and subsequently the assay is suitable to determine the binding of compounds to the single non-mutated bromodomain.
Recombinant Human Bromodomains [(BRD2 (1-473) (Y113A) and (Y386A), BRD3 (1-435) (Y73A) and (Y348A) BRD4 (1-477) (Y97A) and (Y390A) and BRDT (1-397) (Y66A) and (Y309A)] were expressed in E. coli cells (in pET15b vector for BRD2/3/4 and in pET28a vector for BRDT) with a 6-His tag at the N-terminal. The His-tagged Bromodomain pellet was resuspended in 50 mM HEPES (pH7.5), 300 mM NaCl, 10 mM imidazole & 1 μl/ml protease inhibitor cocktail and extracted from the E. coli cells using sonication and purified using a nickel sepharose high performance column, the proteins were washed and then eluted with a linear gradient of 0-500 mM imidazole with buffer 50 mM HEPES (pH7.5), 150 mM NaCl, 500 mM imidazole, over 20 column volumes. […]

- IC50 (MCP-1 production; Homo sapiens, read-out: mean pIC50, LPS induced MCP-1 production (converted)): 25.1 nM
- mean rate of hydrolysis (specific activity of CES1) (recombinant human CES1): 0.21 μM/min/μM
SMILES: Cc1cc(-c2nc3cc(CN[C@H](C(=O)OC(C)C)[C@@H](C)O)ccc3n2CC2CCOCC2)cn(C)c1=O [Example 1, (2S,3R)-Isopropyl 2-(((2-(1,5-dimethyl-6-oxo-1,6-dihydropyridin-3-yl)-1-((tetrahydro-2H-pyran-4-yl)methyl)-1H-benzo[d]imidazol-5-yl)methyl)amino)-3-hydroxybutanoate]

- melting point: ~ 223 °C
SMILES: Cc1cc(-c2nc3cc(CN[C@H](C(=O)OC(C)C)[C@@H](C)O)ccc3n2CC2CCOCC2)cn(C)c1=O (as salt: edisylate) (hydrate or solvate) [Example 1, (2S,3R)-Isopropyl 2-(((2-(1,5-dimethyl-6-oxo-1,6-dihydropyridin-3-yl)-1-((tetrahydro-2H-pyran-4-yl)methyl)-1H-benzo[d]imidazol-5-yl)methyl)amino)-3-hydroxybutanoate]

- mean pIC50, LPS induced MCP-1 production (MCP-1 production): 7.5
SMILES: Cc1cc(-c2nc3cc(CN[C@H](C(=O)OC(C)C)[C@@H](C)O)ccc3n2CC2CCOCC2)cn(C)c1=O [edisylate salt of Example 1, Edisylate Salt of (2S,3R)-Isopropyl 2-(((2-(1,5-dimethyl-6-oxo-1,6-dihydropyridin-3-yl)-1-((tetrahydro-2H-pyran-4-yl)methyl)-1H-benzo[d]imidazol-5-yl)methyl)amino)-3-hydroxybutanoate]

SMILES: COc1ccc2c(c1)C(c1ccc(Cl)cc1)=N[C@@H](CC(=O)NCCCCCNC(=O)CCCCCC1(C)/C(=C/C=C/C=C/C3=[N+](CCCCS(=O)(=O)O)c4ccc(S(=O)(=O)O)cc4C3(C)C)N(CCCCS(=O)(=O)[O-])c3ccc(S(=O)(=O)O)cc31)c1nnc(C)n1-2 (some centres unmarked) [Reference Compound X]
- selectivity for the non-mutated domain over the mutated domain [1]: > 1000 fold

Source: US10676466B2, “Crystalline hydrate of the compound (2S,3R)-isopropyl 2-(((2-(1,5-dimethyl-6-oxo-1,6-dihydropyridin-3-yl)-1-((tetrahydro-2H-pyran-4-yl)methyl)-1H-benzo[D]imidazol-5-yl)methyl)amino)-3-hydroxybutanoate edisylate” (GLAXOSMITHKLINE INTELLECTUAL PROPERTY DEVELOPMENT LIMITED, priority 2016, dated 2020)
